According to US9724337B2, “AG-205 for the treatment of breast cancer” (University of Kentucky Research Foundation, priority 2009, dated 2017):

Legend:
A431 = assay: AG-205 viability assay in A431 cells; format: cell-based; conditions: A431, epitheloid, serum-starved, EGFR wild-type
MDA-MB-231 = assay: AG-205 viability assay in MDA-MB-231 cells; format: cell-based; conditions: MDA-MB-231, breast, serum-starved, EGFR wild-type
Description: (A) Pgrmc1 (SEQ ID NO: 7) shares homology with AtMAPR2 (SEQ ID NO: 8) (underlined residues), which was the target for a screen for small molecule ligands. The putative heme-binding Tyr106 and Tyr112 are indicated with black boxes. (B) The molecular structure of AG-205 includes multiple aromatic components. (C) Spectroscopic scan of Pgrmc1 with vehicle control compared with vehicle plus 50 µM AG-205. The decrease in relative absorbance at 400 nm is consistent with an AG-205-induced change in the spectral properties of Pgrmc1-heme. The scan is representative of four separate scans using different Pgrmc1 protein preparations. […] Percent viability was determined by cell counting, and “% viability” refers to the cell number relative to the untreated control.
Proliferation, anchorage-independent growth and migration assays. […] Following the harvest of the final time point, the cells from each time point were counted using a Bright-line hemocytometer (Hausser Scientific).
(§1) MTT viability assays were performed as described previously. […] The cells were then incubated with 0.5 mg/ml of 3-[4,5-dimethylthiazol-2-y]-2,5-diphenyltetrazolium bromide for 1.5 hours, at which time the media was removed, the precipitated crystals were dissolved in dimethyl sulfoxide, and the absorbance at 590 nm was measured using a Bio-Tek μQuant spectrophotometer.

MDA-MB-468 cells = assay: Viability / proliferation of MDA-MB-468 cells; format: cell-based, human
Description: (§2) Tissue culture. MDA-MB-468 cells were a kind gift from Dr. Rina Plattner of the University of Kentucky and were maintained in medium consisting of Dulbecco's Modified Eagle Medium containing 10% serum supreme (Fisher) and antibiotics. Cells were grown at 37° C. in 5% CO2 in air. A549 and HCC827 lung cancer cells, as well as SK-Br-3 breast cancer cells were obtained from the ATCC (American Type Culture Collection) and were grown under the same conditions. The H1650 lung cancer cell line was a kind gift from Dr. Heinz Kohler of the University of Kentucky. The Pgrmc1 ligand AG-205 was purchased from Timtec, Inc. The EGFR inhibitor AG1478 was from Biomol, Inc. and was used at a concentration range of 0.8-40 μM.
(§3) Proliferation, anchorage-independent growth and migration assays. For growth curves, cells were plated in 24 well dishes and grown in 10% serum-containing medium. At various times, the cells were harvested with trypsin and fixed with formaldehyde added to a final concentration of 3.7%. Following the harvest of the final time point, the cells from each time point were counted using a Bright-line hemocytometer (Hausser Scientific).
(§4) MTT viability assays were performed as described previously. Briefly, cells were plated in 96-well tissue culture dishes and grown in various media with different drug doses. The cells were then incubated with 0.5 mg/ml of 3-[4,5-dimethylthiazol-2-y]-2,5-diphenyltetrazolium bromide for 1.5 hours, at which time the media was removed, the precipitated crystals were dissolved in dimethyl sulfoxide, and the absorbance at 590 nm was measured using a Bio-Tek μQuant spectrophotometer.

A549 cells = assay: Viability of A549 cells; format: cell-based, human
Description: (A) Pgrmc1 (SEQ ID NO: 7) shares homology with AtMAPR2 (SEQ ID NO: 8) (underlined residues), which was the target for a screen for small molecule ligands. The putative heme-binding Tyr106 and Tyr112 are indicated with black boxes. (B) The molecular structure of AG-205 includes multiple aromatic components. (C) Spectroscopic scan of Pgrmc1 with vehicle control compared with vehicle plus 50 µM AG-205. The decrease in relative absorbance at 400 nm is consistent with an AG-205-induced change in the spectral properties of Pgrmc1-heme. The scan is representative of four separate scans using different Pgrmc1 protein preparations. The lower scan is a comparison of purified Pgrmc1 without and with the vehicle control (DMSO). Panels D (A549 cells) and E (MDA-MB-231 cells) are viability assays of cells maintained in 0.1% serum (solid line) or 10% serum (dashed line) and treated with increasing doses of AG-205. Percent viability was determined by cell counting, and “% viability” refers to the cell number relative to the untreated control.
as §2, §3, §4

H157 = assay: AG-205 viability assay in H157 cells; format: cell-based; conditions: H157, lung, serum-starved, EGFR wild-type
Description: as §3, §4

H358 = assay: AG-205 viability assay in H358 cells; format: cell-based; conditions: H358, lung, serum-starved, EGFR wild-type
Description: as §3, §4

H1650 = assay: AG-205 viability assay in H1650 cells; format: cell-based
Description: as §2
as §3, with “At various times, the cells were harvested with trypsin and fixed with formaldehyde added to a final concentration of 3.7%.” left out
as §1

HCC827 = assay: AG-205 viability assay in HCC827 cells; format: cell-based; conditions: HCC827, lung, serum-starved, EGFR ΔE746-A750
Description: as §2
as §3, with “At various times, the cells were harvested with trypsin and fixed with formaldehyde added to a final concentration of 3.7%.” left out
as §1

`Cc1ccc2c(c1)[C@H]1CN(C)CC[C@H]1N2C(=O)CSc1nnnn1-c1ccc(Cl)cc1` [AG-205] was tested, and the IC50 (A431) was 8 µM, the IC50 (MDA-MB-231) was 18 µM and the IC50 (MDA-MB-468 cells; MDA-MB-468, breast, serum-starved, EGFR wild-type, read-out: IC50 values for AG-205, Serum-starved) was 12 µM. The cell viability (MDA-MB-468 cells; MDA-MB-468 cells, 20 μM dose, 72-96 hours after treatment) was “marked loss of viability”, the “viability under normal culture conditions” value (MDA-MB-468 cells; MDA-MB-468 cells, ligand abundant (10% serum)) was “slight increase in viability” and the “cell growth inhibition” value (MDA-MB-468 cells; MDA-MB-468 cells, wild-type EGFR) was “efficiently inhibited cell growth”. The “growth inhibitory activity depending on culture conditions” value (MDA-MB-468 cells; low serum versus 10% serum, P=0.0006 for MDA-MB-468 at 20 μM) was “killing cells grown in low serum conditions but not 10% serum”, the IC50 (A549 cells; A549, lung, serum-starved, EGFR wild-type, read-out: IC50 values for AG-205, Serum-starved) was 15 µM and the cell viability (A549 cells; A549 cells, 20 μM dose, 72-96 hours after treatment) was “marked loss of viability”. The “decrease in viability / cells killed” value (A549 cells; A549 cells, single agent) was 47%, the “cell growth inhibition” value (A549 cells; A549 cells, wild-type EGFR) was “efficiently inhibited cell growth” and the “toxicity in Pgrmc1-inhibited A549 cells” value (A549 cells; Pgrmc1-inhibited versus control A549 cells, after 36 hours, P=0.0001) was “decreased toxicity”. For the same compound, the “viability of Pgrmc1-hbd-expressing cells” value (A549 cells; cells expressing heme binding-deficient mutant, increasing doses of AG-205, cell counting) was “partially reversed the loss of viability”, the IC50 (H157) was 10 µM and the IC50 (H358) was 12 µM. For the same compound, the IC50 (H1650; H1650, lung, serum-starved, EGFR ΔE746-A750) was > 100 µM, the “sensitivity to growth inhibition” value (H1650; H1650 cells, ΔE746-A750 EGFR) was “relatively insensitive” and the IC50 (HCC827) was > 100 µM.
